Experiment [1] has as its target T1, CaLIP10 (lipase 10 from Candida albicans; product of lip10-dm) (Candida albicans, UniProt Q9P4E5).
T1 construct: mature protein without signal peptide, cloned from genomic DNA; CTG-Ser codons 210 and 378 recoded to TCT, so the product keeps native Ser210 and Ser378 (no amino-acid change); secreted from Pichia pastoris X33 with pGAPZalphaA; about 50 kDa by SDS-PAGE
The experiment is described as follows: spectrophotometric release of p-nitrophenol at […] nm. Type of experiment: biochemical. Particulars: 2 mM substrate, 50 mM Tris-HCl pH 8.0, 25 °C.

The target of experiment [2] is T1, CaLIP10 (lipase 10 from Candida albicans; product of lip10-dm). The experiment is described as follows: clear zone on tributyrin-emulsion YPD plates, secreting P. pastoris transformants. The following applies: 1% tributyrin emulsion; X-33 and empty-vector control. Type of experiment: cell-based.

T1 sequence (Q9P4E5 17-465): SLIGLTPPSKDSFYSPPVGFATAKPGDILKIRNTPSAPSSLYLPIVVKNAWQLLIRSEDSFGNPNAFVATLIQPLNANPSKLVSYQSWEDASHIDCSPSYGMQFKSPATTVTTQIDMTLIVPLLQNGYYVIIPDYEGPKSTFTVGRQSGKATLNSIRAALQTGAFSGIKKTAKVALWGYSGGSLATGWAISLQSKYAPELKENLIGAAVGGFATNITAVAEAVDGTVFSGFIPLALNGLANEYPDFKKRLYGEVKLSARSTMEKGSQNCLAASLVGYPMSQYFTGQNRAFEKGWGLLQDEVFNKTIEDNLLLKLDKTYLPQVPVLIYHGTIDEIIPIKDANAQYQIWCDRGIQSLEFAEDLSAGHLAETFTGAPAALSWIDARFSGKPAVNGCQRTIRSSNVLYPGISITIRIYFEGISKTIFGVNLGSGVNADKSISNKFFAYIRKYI

Turning to `CCCCCCCC(=O)Oc1ccc([N+](=O)[O-])cc1` [p-nitrophenol caprylate], in experiment [1], the “spectrophotometric release of p-nitrophenol at 405 nm” value is on record as “The lipase activity was determined spectrophotometrically using p-nitrophenol caprylate as substrate”.

Turning to `CCCC(=O)OCC(COC(=O)CCC)OC(=O)CCC` [tributyrin], the “clear zone on tributyrin-emulsion YPD plates, secreting P. pastoris transformant” value in experiment [2] is “a clear zone was formed around wild type lip10 and mutated lip10-dm”.

The values above are taken from paper PMC3211034, “Optimal Production and Biochemical Properties of a Lipase from Candida albicans” (International Journal of Molecular Sciences, 2011).
